Patent publication US12630501B2, “Anti-fibrotic compounds and use thereof” (HADASIT MEDICAL RESEARCH SERVICES AND DEVELOPMENT LTD., priority 2019, dated 2026)

How the values were obtained:
[1] = target: HDAC3 (Homo sapiens, UniProt O15379); details: prostate cancer cells; cited from earlier work
[2] = target: T1, HDAC10 (Homo sapiens, UniProt Q969S8); details: prostate cancer cells; cited from earlier work
T1 sequence (Q969S8 1-669): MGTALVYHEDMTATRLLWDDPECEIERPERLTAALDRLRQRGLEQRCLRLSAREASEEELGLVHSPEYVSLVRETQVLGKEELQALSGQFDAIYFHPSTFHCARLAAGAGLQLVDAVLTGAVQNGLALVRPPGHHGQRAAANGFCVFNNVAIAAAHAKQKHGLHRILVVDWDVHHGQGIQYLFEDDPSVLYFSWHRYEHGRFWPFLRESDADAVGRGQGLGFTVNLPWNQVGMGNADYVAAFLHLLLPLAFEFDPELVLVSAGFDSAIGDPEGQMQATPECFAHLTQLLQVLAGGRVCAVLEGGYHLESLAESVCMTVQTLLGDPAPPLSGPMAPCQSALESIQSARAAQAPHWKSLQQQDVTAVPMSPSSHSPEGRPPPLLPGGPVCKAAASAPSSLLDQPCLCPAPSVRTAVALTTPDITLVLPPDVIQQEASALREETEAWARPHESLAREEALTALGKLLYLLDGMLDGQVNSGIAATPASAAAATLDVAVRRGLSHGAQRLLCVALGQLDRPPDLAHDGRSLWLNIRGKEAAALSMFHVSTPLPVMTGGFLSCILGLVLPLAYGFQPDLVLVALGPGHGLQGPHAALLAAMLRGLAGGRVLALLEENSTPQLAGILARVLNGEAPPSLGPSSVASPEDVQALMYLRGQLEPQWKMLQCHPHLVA

[3] = target: HDACS (Homo sapiens, UniProt Q9UQL6); details: prostate cancer cells; cited from earlier work
Chain of HDACS (Q9UQL6 whole entry): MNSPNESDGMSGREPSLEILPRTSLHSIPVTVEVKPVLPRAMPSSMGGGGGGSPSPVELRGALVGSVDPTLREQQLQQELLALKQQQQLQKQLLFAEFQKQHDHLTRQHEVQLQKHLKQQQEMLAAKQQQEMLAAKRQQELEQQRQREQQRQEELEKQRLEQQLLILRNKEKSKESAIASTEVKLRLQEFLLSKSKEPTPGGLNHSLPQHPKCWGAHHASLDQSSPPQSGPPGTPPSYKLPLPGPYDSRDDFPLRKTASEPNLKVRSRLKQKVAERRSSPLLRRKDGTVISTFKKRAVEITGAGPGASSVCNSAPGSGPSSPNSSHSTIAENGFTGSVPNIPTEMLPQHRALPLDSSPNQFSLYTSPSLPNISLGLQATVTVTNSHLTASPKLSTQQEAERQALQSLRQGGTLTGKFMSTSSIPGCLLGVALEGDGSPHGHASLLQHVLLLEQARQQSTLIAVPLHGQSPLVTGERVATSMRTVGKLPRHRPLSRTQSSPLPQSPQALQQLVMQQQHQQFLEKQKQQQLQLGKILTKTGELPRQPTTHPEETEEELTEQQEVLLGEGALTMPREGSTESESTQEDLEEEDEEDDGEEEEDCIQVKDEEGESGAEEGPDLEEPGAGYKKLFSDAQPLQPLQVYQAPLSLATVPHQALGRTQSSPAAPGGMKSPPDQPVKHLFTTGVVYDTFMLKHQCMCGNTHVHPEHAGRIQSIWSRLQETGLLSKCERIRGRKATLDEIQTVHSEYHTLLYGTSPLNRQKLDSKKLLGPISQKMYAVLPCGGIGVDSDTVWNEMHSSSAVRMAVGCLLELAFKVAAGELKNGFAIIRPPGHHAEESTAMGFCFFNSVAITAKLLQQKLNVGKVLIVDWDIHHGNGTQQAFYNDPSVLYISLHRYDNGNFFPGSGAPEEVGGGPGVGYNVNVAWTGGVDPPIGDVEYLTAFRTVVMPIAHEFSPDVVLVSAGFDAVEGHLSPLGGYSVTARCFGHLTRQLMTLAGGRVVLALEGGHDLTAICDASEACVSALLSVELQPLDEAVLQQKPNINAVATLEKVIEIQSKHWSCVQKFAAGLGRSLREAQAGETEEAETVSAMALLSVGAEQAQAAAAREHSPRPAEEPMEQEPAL

[4] = test system: BLM-treated C57BL/6 WT mice; test: Bleomycin-induced lung fibrosis in mice, CMH by oropharyngeal aspiration; format: in vivo, mouse
Excerpt: Animals C57BL/6 and mutant mice, male, 11-12 weeks old (Harlan Sprague Dawley, Indianapolis, IN, USA) were used. SIRT1 dominant-negative mice carry a point mutation (H355Y), Sirt1^tm2.1Mcby (Sirt1^y/y, RBRC05324, RIKEN Bio Resource Center, Japan) that ablates SIRT1 enzymatic activity, described in Gabay et al., Arthritis Rheum. 65: 159-166, 2013; and Seifert et al., FASEB J. 26: 555-566, 2012. Mice were maintained under specific pathogen-free conditions with adherence to institutional guidelines for the care and use of laboratory animals. Chimeric mice with SIRT1-deficient mice and WT hematopoietic cells were generated as described in Golan-Gerstl et al., Am. J. Respir Cell Mol. Biol. 36: 270-275, 2007.
Oropharyngeal aspiration (OA) and induction of lung fibrosis in mice Oropharyngeal aspiration of BLM (OA-BLM) was performed as detailed in Golan-Gerstl et al., Am. J. Respir. Cell Mol. Biol. 36: 270-275, 2007. Lung fibrosis was assessed via semi-quantitative morphological index (Wallach-Dayan et al., PNAS USA 104: 20460-20465, 2007). Lung collagen was measured using a Sircol Collagen Assay kit (Biocolor, Belfast, Northern Ireland), and standard protocol of trichrome staining. Isolation of mouse lung myofibroblasts Myofibroblast isolation and culture was performed as described in Golan-Gerstl et al., Am. J. Respir. Cell Mol. Biol. 36: 270-275, 2007; and Wallach-Dayan et al., PNAS USA 104: 20460-20465, 2007.
Immunohistochemistry (IHC) staining of lung tissue sections was performed as described in Golan-Gerstl et al., Am. J. Respir Cell Mol. Biol. 36: 270-275, 2007; and Wallach-Dayan et al., PNAS USA 104: 20460-20465, 2007.
CMH (30 μM) or control vehicle 4% DMSO were administered into WT mice by a second OA on day 6 of OA-BLM (0.05 mU), or control-saline (FIG. 6A). Similar to SIRT1^y/y mice, BLM-treated mice and control saline-treated mice (FIG. 6B) that were exposed to CMH vs. vehicle alone, had low SIRT1 and FLIP expression in lung sections. Myofibroblasts isolated from lungs of BLM-treated mice had decreased Ku70 binding to SIRT1 from 1.2 to 0.6 (FIG. 6C), increased Ku70 acetylation from an OD of 0.1 to 0.91 (FIG. 6D), and decreased Ku70/FLIP complex from an OD of 2.43 to 1.55 (FIG. 6E). Compared to vehicle, CMH-treated mice reduced H&E and collagen-trichrome staining (FIG. 6F, upper and lower panels, respectively), SMI grade (average SMI from 2 to 1.1, FIG. 6G), and collagen in Sircol assay (from 200 μg to only 50 μg, FIG. 6H). Thus, In vivo inhibition of SIRT1 activity, FLIP expression, and lung fibrosis were detected in CMH-BLM-treated mice and attenuation of deacetylation activity on Ku70, a decrease in Ku70/FLIP complex, and FLIP expression levels were detected in myofibroblasts isolated from lungs of CMH-BLM-treated mice. SIRT1-mediated Ku70-deacetylation may therefore stabilize FLIP via Ku70/FLIP complex in lung myofibroblasts promoting fibrosis, which can be inhibited by CMH.

[5] = test system: breast cancer cells and pancreatic cancer cells; details: cited from earlier work
[6] = CMH 30 μM by OA on day 6 of OA-BLM, vs. vehicle

Chain of HDAC3 (O15379 whole entry, species assumed): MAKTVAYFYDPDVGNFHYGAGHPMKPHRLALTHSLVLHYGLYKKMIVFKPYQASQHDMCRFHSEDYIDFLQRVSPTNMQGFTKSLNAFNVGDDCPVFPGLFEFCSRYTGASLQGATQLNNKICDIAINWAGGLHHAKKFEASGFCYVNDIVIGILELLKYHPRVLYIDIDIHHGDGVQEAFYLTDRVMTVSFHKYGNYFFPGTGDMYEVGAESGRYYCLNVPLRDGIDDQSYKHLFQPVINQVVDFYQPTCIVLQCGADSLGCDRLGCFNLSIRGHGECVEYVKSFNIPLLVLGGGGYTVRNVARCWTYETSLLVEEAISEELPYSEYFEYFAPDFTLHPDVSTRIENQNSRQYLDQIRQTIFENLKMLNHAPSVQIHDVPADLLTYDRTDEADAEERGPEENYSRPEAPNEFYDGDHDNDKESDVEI
Chain of HDAC3 (Q9Y618 395-489 partner limits assumed, species assumed): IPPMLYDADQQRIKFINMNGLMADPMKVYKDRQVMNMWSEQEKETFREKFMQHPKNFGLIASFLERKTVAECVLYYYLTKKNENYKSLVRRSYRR

## Cc1cc(Cl)ccc1OCCCC(=O)NO [CMH, 4-(4-chloro-2-methylphenoxy)-N-hydroxybutanamide]
[1]
  Inhibition of HDAC3: Selective inhibition
[2]
  Inhibition of HDAC10: not inhibited
[3]
  Inhibition of HDACS: not inhibited
[4]; CMH 30 μM OA day 6, day 14 post BLM, compared to vehicle
  H&E and collagen-trichrome staining of lung tissue sections: reduced
[4]; CMH 30 μM OA day 6, day 14 post BLM, vehicle 200 μg
  Collagen in Sircol assay: 50 µg
[4]; CMH 30 μM OA day 6, day 14 post BLM, vehicle 2
  Average SMI grade (semi-quantitative morphological index): 1.1
[4]; [6]
  FLIP expression in lung sections (IHC): low
  SIRT1 expression in lung sections (IHC): low
[5]
  Apoptosis: increase
  FLIP expression: downregulate
